Key:
human FSH receptor = target: T1, human FSH receptor (Homo sapiens, UniProt P23945); test: Follicle-Stimulating Hormone Receptor-Dependent Cre-Luciferase Reporter Gene Assay (CHO FSH-R 6CRE-Luc cells); assay type: cell-based; details: for IC50: dose-response format, in presence of EC50 of purified human FSH; for inhibition at 30 µM: 2-dose format, concentration in parentheses 30 μM, inhibition of the response to EC50 of FSH
T1 construct: host or cells: CHO-K1 (CHO FSH-R 6CRE-Luc, 1D7 cells)
T1 sequence (P23945 18-695): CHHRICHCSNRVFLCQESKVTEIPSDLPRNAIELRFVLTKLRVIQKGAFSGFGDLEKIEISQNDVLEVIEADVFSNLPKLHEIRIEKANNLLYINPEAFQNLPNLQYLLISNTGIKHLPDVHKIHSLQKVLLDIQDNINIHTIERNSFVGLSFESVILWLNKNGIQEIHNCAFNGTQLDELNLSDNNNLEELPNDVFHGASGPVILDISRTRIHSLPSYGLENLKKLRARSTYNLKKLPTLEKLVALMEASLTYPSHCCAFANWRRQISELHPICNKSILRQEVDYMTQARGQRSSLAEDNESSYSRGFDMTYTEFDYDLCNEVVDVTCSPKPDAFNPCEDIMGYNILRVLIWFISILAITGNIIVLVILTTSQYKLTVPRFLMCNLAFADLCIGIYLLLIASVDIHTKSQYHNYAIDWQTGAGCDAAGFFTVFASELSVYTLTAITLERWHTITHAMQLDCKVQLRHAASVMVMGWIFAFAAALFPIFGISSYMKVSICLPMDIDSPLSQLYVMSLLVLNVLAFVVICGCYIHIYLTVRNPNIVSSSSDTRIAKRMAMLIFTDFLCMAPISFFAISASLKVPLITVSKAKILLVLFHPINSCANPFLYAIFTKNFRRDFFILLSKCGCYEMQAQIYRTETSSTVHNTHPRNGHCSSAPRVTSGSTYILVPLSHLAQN
Text: Follicle-Stimulating Hormone Receptor-Dependent Cre-Luciferase Reporter Gene Assay for the Identification of Follicle-Stimulating Hormone (FSH) Antagonists
A Chinese hamster ovarian cell line that stably produces the human FSH receptor and a luciferase reporter gene regulated by cAMP response elements was used to identify and determine the relative potencies of human FSH receptor antagonists. See for example, Kelton, C. A., et al. Mol. Cell. Endocrinol. 89:141-151 (1992), Tilly, J. L., et al. Endocrinology 131:799-806(1992), and George, S. E., et al. J. Biomol. Screening 2:235-240 (1997).
Compound Vehicle: Stock compounds were solubilized in an appropriate vehicle, e.g., phosphate buffered saline (PBS) or dimethyl sulfoxide (DMSO), at 30 mM. The compounds were subsequently diluted in DMSO to working dilutions of 1 and 20 or 30 mM for 2-dose testing format and 1 μM-10 mM for dose-response format. The DMSO dilutions were diluted 500-fold in sterile growth medium [D-MEM/F-12 (GIBCO/BRL; Grand Island, NY) containing 15 mM HEPES, 2 mM 1-glutamine, pyridoxine hydrochloride, phenol red and 5% FetalClone® II (HyClone Laboratories, Inc; Logan, Utah), 0.2% DMSO, 100 units penicillin G/ml, and 100 μg streptomycin sulfate/ml (GIBCO/BRL)]. The concentration of the vehicle in each of the compound dilutions was the same.
Positive Controls: Purified human FSH (>98%) was purchased from Cortex Biochem, Inc. (San Leandro, Calif.) and 3-[(2S*,5R*)-5-{[2-(1H-Indol-3-yl)-ethylcarbamoyl]-methyl}-4-oxo-2-(5-phenylethynyl-thiophen-2-yl)-thiazolidin-3-yl]-benzamide (an FSH-R thiazolidinone antagonist) was prepared by processes described by R. A. Scheuerman et al. in U.S. Pat. No. 6,426,357 (Affymax).
The CHO FSH-R 6CRE-Luc cells (1D7 cells) were obtained from Affymax (Palo Alto, Calif.). These Chinese hamster ovary cells (CHO-K1) were engineered genetically to stably express the recombinant human FSH receptor gene and a luciferase reporter gene under the regulation of 6 copies of a cAMP response element. The cells were plated one day prior to treatment into 96-well white opaque plates at a density of 50,000 cells/100 μl/well in growth medium. On the day of treatment, the growth medium was removed from the wells by aspiration and 50 μl of fresh growth medium was added to each well. The cells were incubated at 37° C. in a humidified incubator with 5% CO2/95% air.
The treated cells were incubated for 4 hours at 37° C. in a humidified incubator with 5% CO2/95% air. At the end of the incubation period, luciferase activity was measured by chemiluminescence using a commercially available kit (LucScreen, Tropix, Inc., Bedford, Mass.) according to the manufacturer's specifications, except that Buffer 1 and Buffer 2 were mixed together in equal proportion prior to the addition of 100 μl of the combined reagents to each well. Chemiluminescence was detected using a luminometer (EG & G Berthold Microlumat LB 96 P, Wallac, Gaithersburg, Md.) with chemiluminescence measured for 1 sec/well. Background luminescence was measured for each well prior to the addition of the LucScreen reagent.
In the 96-well 2-dose format, each compound was tested in duplicate at each dose. […] One plate was used to test a maximum of 22 compounds.
The EC50 of purified human FSH alone was tested in triplicate with each test compound. The doses chosen to test each compound were extrapolated from the initial 2-dose screening process. Along with the test compounds, purified human FSH also was tested in a dose response (0.03, 0.1, 0.3, 1, 3, 10, and 30 ng/ml) for a positive control and quality control. One plate was used for 3 test compounds and the FSH positive control.
Luciferase activity is expressed as relative light units/sec/well. Luciferase activity in antagonist was compared to the appropriate negative and positive controls. For 2-dose testing, results are reported as luciferase activity and are expressed as percent inhibition of the response obtained from the EC50 of FSH.

melting point [°C]	IC50 (human FSH receptor) [µM]	inhibition at 30 µM (human FSH receptor) [%]	Compound
154 to 159	> 30		COc1cc(C(=O)N2Cc3ccc(C(=O)NCCCCc4ccccc4)n3Cc3ccccc32)ccc1-c1ccccc1C [Example 49, 10-[(2-METHOXY-2′-METHYL-1,1′-BIPHENYL-4-YL)CARBONYL]-N-(4-PHENYLBUTYL)-10,11-DIHYDRO-5H-PYRROLO[2,1-C][1,4]BENZODIAZEPINE-3-CARBOXAMIDE]
214 to 215	> 30		COc1cc(C(=O)N2Cc3ccc(C(=O)NCC(O)c4ccccc4)n3Cc3ccccc32)ccc1-c1ccccc1C (centres unmarked) [Example 63]
165 to 167	> 30		COc1cc(C(=O)N2Cc3ccc(C(=O)NCc4ccccc4C(F)(F)F)n3Cc3ccccc32)ccc1-c1ccccc1C [Example 39, 10-[(2-METHOXY-2′-METHYL-1,1′-BIPHENYL-4-YL)CARBONYL]-N-[2-(TRIFLUOROMETHYL)BENZYL]-10,11-DIHYDRO-5H-PYRROLO[2,1-C][1,4]BENZODIAZEPINE-3-CARBOXAMIDE]
150 to 154	> 30		COc1ccc(CCNC(=O)c2ccc3n2Cc2ccccc2N(C(=O)c2ccc(-c4ccccc4C)c(OC)c2)C3)cc1OC [Example 52, N-[2-(3,4-DIMETHOXYPHENYL)ETHYL]-10-[(2-METHOXY-2′-METHYL-1,1′-BIPHENYL-4-YL)CARBONYL]-10,11-DIHYDRO-5H-PYRROLO[2,1-C][1,4]BENZODIAZEPINE-3-CARBOXAMIDE]
169 to 171		52	Cc1ccccc1-c1ccc(C(=O)N2Cc3ccc(C(=O)NCCc4ccc(Cl)cc4)n3Cc3ccccc32)cc1C [Example 27]
148 to 150	> 30		COc1cc(C(=O)N2Cc3ccc(C(=O)NCc4ccc(N(C)C)cc4)n3Cc3ccccc32)ccc1-c1ccccc1C [Example 57, N-[4-(DIMETHYLAMINO)BENZYL]-10-[(2-METHOXY-2′-METHYL-1,1′-BIPHENYL-4-YL)CARBONYL]-10,11-DIHYDRO-5H-PYRROLO[2,1-C][1,4]BENZODIAZEPINE-3-CARBOXAMIDE]
143 to 145	> 30		O=C(NCc1cccc(C(F)(F)F)c1)c1ccc2n1Cc1ccccc1N(C(=O)COc1ccc(Cl)cc1)C2 [Example 72, 10-[(4-CHLOROPHENOXY)ACETYL]-N-[3-(TRIFLUOROMETHYL)BENZYL]-10,11-DIHYDRO-5H-PYRROLO[2,1-C][1,4]BENZODIAZEPINE-3-CARBOXAMIDE]
147 to 149		30	Cc1ccccc1-c1ccc(C(=O)N2Cc3ccc(C(=O)NCc4ccc(OC(F)(F)F)cc4)n3Cc3ccccc32)cc1C [Example 19]
145 to 149	> 30		COc1cc(C(=O)N2Cc3ccc(C(=O)NCc4ccc(OC(F)(F)F)cc4)n3Cc3ccccc32)ccc1-c1ccccc1C [Example 45, 10-[(2-METHOXY-2′-METHYL-1,1′-BIPHENYL-4-YL)CARBONYL]-N-[4-(TRIFLUOROMETHOXY)BENZYL]-10,11-DIHYDRO-5H-PYRROLO[2,1-C][1,4]BENZODIAZEPINE-3-CARBOXAMIDE]
183 to 184		59	Cc1ccccc1-c1ccc(C(=O)N2Cc3ccc(C(=O)NCCCc4ccccc4)n3Cc3ccccc32)cc1C [Example 25]
102		24	O=C(NCc1cccc(C(F)(F)F)c1)c1ccc2n1Cc1ccccc1N(C(=O)CSc1ccc(Br)cc1)C2 [Example 85, 10-{[(4-BROMOPHENYL)THIO]ACETYL}-N-[3-(TRIFLUOROMETHYL)BENZYL]-10,11-DIHYDRO-5H-PYRROLO[2,1-C][1,4]BENZODIAZEPINE-3-CARBOXAMIDE]
154 to 155		27	O=C(NCc1ccc2c(c1)OCO2)c1ccc2n1Cc1ccccc1N(C(=O)CSc1ccc(Br)cc1)C2 [Example 84]
201 to 202		6	O=C(Nc1ccc(-c2ccccc2)cc1)c1ccc2n1Cc1ccccc1N(C(=O)COc1ccc(Cl)cc1)C2 [Example 74, N-(1,1′-BIPHENYL-4-YL)-10-[(4-CHLOROPHENOXY)ACETYL]-10,11-DIHYDRO-5H-PYRROLO[2,1-C][1,4]BENZODIAZEPINE-3-CARBOXAMIDE]
175	> 30		COc1cc(CNC(=O)c2ccc3n2Cc2ccccc2N(C(=O)c2ccc(-c4ccccc4C)c(OC)c2)C3)cc(OC)c1 [Example 89, N-(3,5-DIMETHOXYBENZYL)-10-[(2-METHOXY-2′-METHYL-1,1′-BIPHENYL-4-YL)CARBONYL]-10,11-DIHYDRO-5H-PYRROLO[2,1-C][1,4]BENZODIAZEPINE-3-CARBOXAMIDE]
130 to 136	> 30		COc1ccc(CCNC(=O)c2ccc3n2Cc2ccccc2N(C(=O)c2ccc(-c4ccccc4C)c(C)c2)C3)cc1OC [Example 28, N-[2-(3,4-DIMETHOXYPHENYL)ETHYL]-10-[(2,2′-DIMETHYL-1,1′-BIPHENYL-4-YL)CARBONYL]-10,11- DIHYDRO-5H-PYRROLO[2,1-C][1,4]BENZODIAZEPINE-3-CARBOXAMIDE]
130 to 131		7	Cc1cccc(CNC(=O)c2ccc3n2Cc2ccccc2N(C(=O)COc2ccc(Cl)cc2)C3)c1 [Example 71, 10-[(4-CHLOROPHENOXY)ACETYL]-N-(3-METHYLBENZYL)-10,11-DIHYDRO-5H-PYRROLO[2,1-C][1,4]BENZODIAZEPINE-3-CARBOXAMIDE]
126 to 128	> 30		Cc1ccccc1-c1ccc(C(=O)N2Cc3ccc(C(=O)NCc4ccccc4C(F)(F)F)n3Cc3ccccc32)cc1C [Example 24]
111 to 113	> 30		CC(C)(C)c1ccc(NC(=O)c2ccc3n2Cc2ccccc2N(C(=O)COc2ccc(Cl)cc2)C3)cc1 [Example 102, N-(4-TERT-BUTYLPHENYL)-10-[(4-CHLOROPHENOXY)ACETYL]-10,11-DIHYDRO-5H-PYRROLO[2,1-C][1,4]BENZODIAZEPINE-3-CARBOXAMIDE]
174 to 176		17	Cc1ccc(CNC(=O)c2ccc3n2Cc2ccccc2N(C(=O)COc2ccc(Cl)cc2)C3)cc1 [Example 70, 10-[(4-CHLOROPHENOXY)ACETYL]-N-(4-METHYLBENZYL)-10,11-DIHYDRO-5H-PYRROLO[2,1-C][1,4]BENZODIAZEPINE-3-CARBOXAMIDE]
